The text below walks through data of patent publication US20110092445A1, “Amyloid ß peptide analogues, oligomers thereof, processes for preparing and composi-tions comprising said analogues or oligomers, and their uses” (Abbott Laboratories, priority 2008, published 2011).

Bridges are numbered along the chain shown (N, C = ends). Where no end group is shown, it is not given here.

Experiment [1] deals with polyclonal rabbit serum 5599. The experiment in a line: Dot blot analysis with rabbit polyclonal antibody 5599. The experiment is classed as binding. Particulars: FIG. 8B; serum shows high general background. The source says:
(§1) 1. (14C, 37C) N-Met Aβ(1-42) oligomer of example 4a 2. Thermolysin truncated (14C, 37C) N-Met Aβ(1-42) oligomer of example 5a 3. (15C, 36C) N-Met Aβ(1-42) oligomer of example 4b 4. Thermolysin truncated (15C, 36C) N-Met Aβ(1-42) oligomer of example 5b 5. (16C, 35C) N-Met Aβ(1-42) oligomer of example 4c 6. Thermolysin truncated (16C, 35C) N-Met Aβ(1-42) oligomer of example 5c 7. (17C, 34C) N-Met Aβ(1-42) oligomer of example 4d 8) Thermolysin truncated (17C, 34C) N-Met Aβ(1-42) oligomer of example 5d 9. (18C, 33C) N-Met Aβ(1-42) oligomer of example 4e 10. Thermolysin truncated (18C, 33C) N-Met Aβ(1-42) oligomer of example 5e 11. (19C, 32C) N-Met Aβ(1-42) oligomer of example 4f 12. Thermolysin truncated (19C, 32C) N-Met Aβ(1-42) oligomer of example 5f 13. (20C, 31C) N-Met Aβ(1-42) oligomer of example 4g 14. Thermolysin truncated (20C, 31C) N-Met Aβ(1-42) oligomer of example 5g 15. (21C, 30C) N-Met Aβ(1-42) oligomer of example 4h 16. Thermolysin truncated (21C, 30C) N-Met Aβ(1-42) oligomer of example 5h 17. (22C, 29C) N-Met Aβ(1-42) oligomer of example 4i 18. Thermolysin truncated (22C, 29C) N-Met Aβ(1-42) oligomer of example 5i 19. Aβ(1-42) globulomer of example 4j 20. Aβ(1-42) thermolysin truncated globulomer of example 5j
(§2) • Serial dilution of Aβ antigens in columns 1-20 in 20 mM NaH2PO4, 140 mM NaCl, pH 7.4+0.2 mg/ml BSA • 1) 10 pmol/μl • 2) 1 pmol/μl • 3) 0.1 pmol/μl • 4) 0.01 pmol/μl • 5) 0.001 pmol/μl
(§3) • TBS • 25 mM Tris/HCl-buffer pH 7.5 • +150 mM NaCl • TTBS • 25 mM Tris/HCl-buffer pH 7.5 • +150 mM NaCl • +0.05% Tween 20 • PBS+0.2 mg/ml BSA • 20 mM NaH2PO4 buffer pH 7.4 • +140 mM NaCl • +0.2 mg/ml BSA
(§4) • Either Rabbit sera samples or mouse monoclonal antibodies were used as Antibody solution I and prepared as in the following: • Rabbit sera samples (1:200 diluted in 20 ml 1% low fat milk in TBS) • Mouse monoclonal antibodies (diluted to 0.2 μg/ml in 20 ml 1% low fat milk in TBS)
(§5) • In the case Antibody solution I was Rabbit sera samples then Antibody solution II was Anti-Rabbit-AP. […]

Experiment [2] concerns Aβ globulomer-specific antibody 7C6. As to the kind of experiment: Dot blot analysis with monoclonal antibody 7C6. The experiment is classed as binding, murine. The note with it: FIG. 8A.
Description: as §1, §2, §3, §4, §5

Experiment [3] concerns Alzheimer Disease transgenic mice. The note with it: active immunization, cited from earlier work.
The test system of experiment [4] is Aβ globulomer epitope specific antibody 10F11. The experiment in a line: Immunoprecipitation with 10F11-Dynabeads and SELDI-MS detection. It is filed as binding, murine. The note with it: FIG. 10A/10B; isotype controls IgG2a, IgG2b. As to the method: (§6) A: Activation of Dynabeads with Monoclonal Mouse Antibodies • The stock-suspension of dynabeads (Dynabeads M-280 Sheep anti-Mouse IgG, Invitrogen; Cat. no.: 112.02) was shaken carefully to prevent foaming. • 1 mL was aseptically removed and transferred to a 1.5 mL reaction vial. • The dynabeads were washed 3 times 5 min with 1 mL immunoprecipitation (IP)-wash buffer (IP-wash-buffer: PBS (20 mM NaH2PO4, 140 mM NaCl, pH 7.4), 0.1% BSA). During the washing procedure the supernatant was carefully removed while the dynabeads were immobilized at the side of the reaction vial with a magnetic separator stand (MSS). • The washed dynabeads were incubated with 40 μg Aβ antibody in 1 mL PBS, 0.1% BSA • The activation was carried out by overnight incubation under shaking at 4° C. • The activated dynabeads were washed 4 times 30 min (again using the MSS) with 1 mL IP-wash buffer (PBS (20 mM NaH2PO4, 140 mM NaCl, pH 7.4), 0.1% BSA). • The activated dynabeads were resuspended with 1 mL PBS, 0.1% BSA, 0.02% NaAzide; vortexed and centrifuged briefly. • The antibody activated dynabeads were stored at 4° C. until further use. […]

Experiment [5] deals with Aβ globulomer epitope specific antibody 7C6. The experiment in a line: Immunoprecipitation with 7C6-Dynabeads and SELDI-MS detection. It is filed as binding, murine. As to the method:
as §6

As to Aβ(1-42) globulomer [example 4j], in experiment [1], the “recognition by polyclonal rabbit serum 5599 in dot blot” value is given as “do not detect”. Besides, the “recognition by Aβ globulomer-specific antibody 7C6 in dot blot” value in experiment [2] was “do not detect”.

For the substance “Aβ(20-42) truncated globulomer: obtained by subjecting an Aβ(1-42) globulomer to thermolysin proteolysis (FAEDVGSNKGAIIGLMVGGVVIA; also: truncated globulomer)”, the “reversal of deficits in novel object recognition task” value in experiment [3] (AD transgenic mouse models) is on record as “proven to reverse deficits in novel object recognition task”. For the same substance, the “reversing cognitive defects in Alzheimer Disease transgenic mice” value in experiment [3] is recorded as “effective in reversing cognitive defects”.

With “Disulfide-stabilized (17C, 34C) ARO 6-35)-amide oligomer (KCVFFAEDVGSNKGAIIGCM-NH2; disulfide 2-19; also: oligomer; UniProt P05067 687-706, looked up, variant L17C L34C) [example 4p]”, the “recognition by 10F11 (immunoprecipitation, SELDI-MS)” value in experiment [4] is “recognized”. For the same substance, in experiment [5] (FIG. 10A/10B, isotype controls IgG2a, IgG2b), the “recognition by 7C6 (immunoprecipitation, SELDI-MS)” value is listed as “recognized”. For the same substance, the “presence of the Aβ globulomer epitope (conclusion from immunoprecipitation)” value in experiment [5] (immunoprecipitation with 7C6 and 10F11) is “contained the Aβ globulomer epitope”.

In the case of “Thermolysin truncation of Aβ(1-42) globulomer [example 5j]”, the “recognition by polyclonal rabbit serum 5599 in dot blot” value in experiment [1] was “comparable recognition”. Moreover, the “recognition by Aβ globulomer-specific antibody 7C6 in dot blot” value in experiment [2] is “comparable recognition”.

As to “Thermolysin truncation of disulfide-stabilized (15C, 36C) N-Met Aβ(1-42) oligomer [example 5b]”, the “recognition by polyclonal rabbit serum 5599 in dot blot” value in experiment [1] is recorded as “recognized by the polyclonal rabbit serum 5599”. In addition, in experiment [2], the “recognition by Aβ globulomer-specific antibody 7C6 in dot blot” value was “only recognized by the polyclonal rabbit serum 5599”.
